Reference: patent US6583145B1, “Thio-oxindole derivatives” (Wyeth, priority 1999, dated 2003)

Tested on: not given
Assay: not given
Details: not given

SMILES	melting point
COc1cccc(-c2ccc3c(c2)C2(CCCCC2)C(=NO)N3)c1 [Example 49, 5′-(3-Methoxyphenyl)spiro[cyclohexane-1,3′-[3H]indol]-2′(1′H)-one Oxime]	101 to 104 °C
CC1(C)C(=S)Nc2ccc(-c3coc(C#N)c3)cc21 [Example 18, 4-(3,3-Dimethyl-2-thioxo-2,3-dihydro-1H-indol-5-yl)-2-furonitrile]	188 to 191 °C
ON=C1Nc2ccc(-c3ccc(F)cc3)cc2C12CCCCC2 [Example 47, 5′-(4-Fluorophenyl)spiro[cyclohexane-1,3′-[3H]indol]-2′(1′H)-one Oxime]	205 to 208 °C
N#Cc1cccc(-c2ccc3c(c2)C2(CCCCC2)C(=S)N3)c1 [Example 2, 3-(1′,2′-Dihydro-2′-thioxospiro[cyclohexane-1,3′-[3H]indol]-5′-yl)benzonitrile]	> 231 °C (dec.)
N#Cc1cccc(-c2ccc3c(c2)C2(CCCCC2)C(=NO)N3)c1 [Example 51, 5′-(3-Cyanophenyl)spiro[cyclohexane-1,3′-[3H]indol]-2′(1′H)-one Oxime]	198 to 200 °C

Tested on: rat uterine decidualization
Assay: Rat decidualization assay
Details: s.c.; average of the dose-response curves

SMILES	Estimated average EC50 (decidual response) [mg/kg]
C#C[C@]1(O)CC[C@H]2[C@@H]3CCC4=CC(=O)CC[C@@H]4[C@H]3C(=C)C[C@@]21CC [3-Ketodesogestrel]	0.10
